# From publication PMC9620869 (Cancer Research, 2022)
# Legend:
# hiPSC-CMs = experiment: hiPSC-CM contractility; assay type: cell-based; conditions: Homo sapiens, 96 h, read-out: hiPSC-CM contractility IC50
# HMVEC-Cs = experiment: Vasculogenesis assay; conditions: Homo sapiens, 6 h
# in vivo = conditions: male, C57Bl/6, mouse, plasma, po, 10 mg/kg
# [1] = oral dose escalation, maximal dose 60 mg/kg, 30 days
# serum cardiac Troponin-I = conditions: 30 mg/kg oral daily, end of treatment
smiles,measurement,setting,value
Cc1ccc(C(=O)Nc2ccc(CN3CCN(C)CC3)c(C(F)(F)F)c2)cc1C#Cc1cnc2cccnn12 [Ponatinib],IC50,hiPSC-CMs,> 1500 nM
same,IC50,HMVEC-Cs; read-out: Vascular profile IC50,~200 nM
same,EC50,"HMVEC-Cs; read-out: Vasculotoxicity (EC50, μmol/L) mean ± SEM",0.2 ± 0.04 µmol/L
same,Cmax,in vivo,200 ng/mL
same,Tmax,in vivo,2 h
same,dose causing lethality,[1],50 mg/kg
same,serum cardiac Troponin-I levels compared with vehicle alone,serum cardiac Troponin-I,significantly elevated levels
